Entries after “also recorded” stand apart in the source; their conditions may differ.
Assays:
[1] = test system: pre-miR-21; assay: RT-qPCR of pre-miR-21 levels in MDA-MB-231 cells; format: cell-based, human; settings: MDA-MB-231, RT-qPCR
Procedure: Cell Culture. Cells were cultured at 37° C. and 5% CO2. MDA-MB-231 cells (HTB-26, ATCC) were cultured in RMPI 1640 medium with L-glutamine & 25 mM HEPES supplemented with 1× Antibiotic/Antimycotic solution (Corning) and 10% FBS. MCF-10A cells (CRL-10317, ATCC) were cultured in 1×DMEM/F12 50/50 with L-glutamine & 15 mM HEPES (Corning) supplemented with 20% FBS, 1× Antibiotic/Antimycotic solution, 20 ng/mL human epidermal growth factor (Pepro Tech, Inc.), 10 μg/mL insulin (Sigma-Aldrich), and […] hydrocortisone (Pfaltz & Bauer). For compound treatment, compound stocks either in DMSO or water were diluted in growth medium and added to cells for the indicated time. Plasmid DNA to overexpress pre-miR-21 in pcDNA 3.1 (Addgene 21114) or a plasmid DNA encoding the pre-miR-21 mutant (custom purchased from GenScript USA, Inc.) was transfected with jetPRIME per the manufacturer's protocol. After transfection, the medium was replaced with growth medium containing the compound of interest, prepared as described above. The RNase L-targeting siRNA or a control siRNA was transfected with Lipofectamine RNAiMAX reagent (Invitrogen) per the manufacturer's protocol.
RNA Isolation and Quantitative Real-Time PCR (RT-qPCR). After treatment, total RNA was extracted and purified by using the Zymo Quick-RNA mini prep kit per the manufacturer's protocol. Reverse Transcription (RT) for mature miRNAs as well as pri- and pre-miR-21 was completed on 200 ng of RNA by using a miScript 11 RT kit (QIAGEN) according to manufacturer's protocol. RT of mRNAs was performed by using QScript kit (Quanta Bio). An Applied Biosystems QS5 384-well PCR system was used to complete qPCR experiments using Power Sybr Green Mater Mix (Life Technologies) as described previously^6.

[2] = target: T1, RNase L / pre-miR-21 ternary complex (Homo sapiens, UniProt Q05823); assay: RNase L immunoprecipitation; format: cell-based; settings: 1 μM, MDA-MB-231
T1 construct: endogenous in cells; host or cells: MDA-MB-231
T1 sequence (Q05823 1-741): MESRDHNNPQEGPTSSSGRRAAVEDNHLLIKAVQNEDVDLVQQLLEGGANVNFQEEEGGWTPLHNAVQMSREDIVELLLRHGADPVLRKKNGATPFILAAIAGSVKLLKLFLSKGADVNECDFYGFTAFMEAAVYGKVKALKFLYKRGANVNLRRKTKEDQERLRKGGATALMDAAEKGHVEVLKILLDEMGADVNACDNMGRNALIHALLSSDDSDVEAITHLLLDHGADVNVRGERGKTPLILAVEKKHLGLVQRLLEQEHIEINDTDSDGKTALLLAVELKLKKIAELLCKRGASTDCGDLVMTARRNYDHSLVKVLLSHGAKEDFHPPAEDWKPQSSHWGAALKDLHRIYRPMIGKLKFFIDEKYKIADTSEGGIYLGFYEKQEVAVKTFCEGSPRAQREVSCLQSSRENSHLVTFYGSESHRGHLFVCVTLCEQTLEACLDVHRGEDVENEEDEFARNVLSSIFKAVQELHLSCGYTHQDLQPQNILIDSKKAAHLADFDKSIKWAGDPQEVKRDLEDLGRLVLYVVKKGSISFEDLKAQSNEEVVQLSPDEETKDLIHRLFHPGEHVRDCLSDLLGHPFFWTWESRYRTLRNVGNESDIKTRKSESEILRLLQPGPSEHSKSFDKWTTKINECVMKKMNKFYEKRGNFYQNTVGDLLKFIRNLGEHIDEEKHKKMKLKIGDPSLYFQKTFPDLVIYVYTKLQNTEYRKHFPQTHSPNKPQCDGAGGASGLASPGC
Procedure: RNase L Immunoprecipitation. MDA-MB-231 cells were seed in 6-well plates and were treated with vehicle, 4 (1 μM) or 5 (1 μM) when the cells reached ~70% confluency. After 48 h, the cells were harvested and lysed in 100 μL of M-PER buffer containing protease inhibitor and RNaseOUT recombinant Ribonuclease Inhibitor (Invitrogen) on ice for 20 min. The lysate was centrifuged at 13,000×g for 15 min, and the supernatants were incubated with Dynabeads Protein A (Life Technologies) bound to RNase L mouse primary antibody or β-actin mouse primary antibody overnight at 4° C. After incubation, the beads were washed with 1×DPBS containing 0.02% (v/v) Tween-20, and RNA was extracted by using a miRNeasy Mini Kit (Qiagen) per the manufacturer's instructions. RT-qPCR was performed as described above. Relative RNA levels were determined by ΔΔCt method by normalizing to 18S rRNA levels. Normalized fold change was calculated as previously described^6.

[3] = target: T2, FLT3 (Homo sapiens, UniProt P36888); assay: Cellular Chem-CLIP/C-Chem-CLIP to study occupancy of an RTK; format: cell-based; settings: 0.01-10 μM pre-treatment
T2 construct: endogenous in cells; host or cells: MDA-MB-231
T2 sequence (P36888 27-993): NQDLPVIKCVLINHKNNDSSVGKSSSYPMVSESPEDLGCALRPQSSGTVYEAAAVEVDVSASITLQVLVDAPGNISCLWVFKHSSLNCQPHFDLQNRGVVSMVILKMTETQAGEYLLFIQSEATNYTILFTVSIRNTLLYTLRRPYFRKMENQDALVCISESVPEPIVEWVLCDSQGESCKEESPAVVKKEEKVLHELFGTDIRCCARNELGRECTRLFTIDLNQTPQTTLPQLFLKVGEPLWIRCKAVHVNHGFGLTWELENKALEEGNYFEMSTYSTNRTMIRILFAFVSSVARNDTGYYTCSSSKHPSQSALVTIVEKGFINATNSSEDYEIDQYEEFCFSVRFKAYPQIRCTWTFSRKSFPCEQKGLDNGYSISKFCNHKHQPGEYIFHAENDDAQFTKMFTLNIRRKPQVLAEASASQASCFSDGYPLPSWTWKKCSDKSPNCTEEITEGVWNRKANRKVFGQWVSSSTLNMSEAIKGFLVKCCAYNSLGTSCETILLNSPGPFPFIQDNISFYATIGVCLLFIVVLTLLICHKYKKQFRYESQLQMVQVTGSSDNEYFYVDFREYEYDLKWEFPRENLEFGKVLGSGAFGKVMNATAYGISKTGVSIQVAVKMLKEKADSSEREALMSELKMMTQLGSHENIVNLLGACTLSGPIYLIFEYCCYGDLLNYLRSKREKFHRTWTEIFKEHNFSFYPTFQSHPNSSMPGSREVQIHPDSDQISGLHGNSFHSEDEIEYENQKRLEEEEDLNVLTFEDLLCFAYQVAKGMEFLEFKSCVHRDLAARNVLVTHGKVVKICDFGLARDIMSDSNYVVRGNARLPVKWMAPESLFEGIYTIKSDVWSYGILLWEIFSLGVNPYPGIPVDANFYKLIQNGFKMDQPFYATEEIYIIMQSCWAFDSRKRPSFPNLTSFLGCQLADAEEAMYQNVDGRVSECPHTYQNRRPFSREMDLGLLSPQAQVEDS
Procedure: Cellular Chem-CLIP/C-Chem-CLIP to Study Occupancy of an RTK. Compound treatment and isolation of cells was completed as described for cellular occupancy studies of pre-miR-21. Total protein was extracted and concentration determined as described in the “Western Blotting” section. Approximately 1 mg of total protein was used for following pull-down experiments, using a protocol adapted from a previously published method 8. Protein cross-linked to the probe were clicked to disulfide biotin azide as described above except the amount of each reagents was doubled (20 μL/sample). Then, to the mixture was added ice-cold, 4:1 mixture of methanol/chloroform (2.5 mL) followed by 1 mL of ice-cold 1×DPBS. The mixture was centrifuged at 5000×g for 10 min at 4° C. to fractionate a protein interphase between organic and aqueous layers. […] The washed protein mixture was centrifuged at 5000×g for 10 min at 4° C. to pellet the protein. The pellet was dissolved in H2O, and to this solution was added 20 μLL streptavidin beads for 30 min at room temperature. The solution was removed, and the beads were washed once with 0.2% SDS in 1×DPBS, twice with detergent-free 1×DPBS and twice with nanopure water. After these washing steps, protein was cleaved as described above. The supernatant was collected, and protein concentration was determined with Pierce Micro BCA Protein Assay kit. […] Sample preparation was completed as described above for cellular Chem-CLIP studies. Western blotting was performed on total protein (10 μg) before or after pull-down, indicated as “Input” or “Output”, as described in Western Blotting.

[4] = test system: 3×2 RNA internal loop library (3×2 ILL); assay: AbsorbArray 2DCS selection with Inforna fitness analysis; format: binding, human; settings: Zobs>8
Procedure: Construction of AbsorbArray Small Molecule Microarrays. Microarrays were constructed as previously reported^4. Briefly, a 1% agarose solution was poured onto a glass slide and dried on the benchtop. A 200 nL aliquot of 68 hit compounds (10 mM in DMSO) was pinned onto the array from a 384-well plate using Biomek NXP Laboratory Automation Workstation. Slides were then dried overnight to obtain a thin, invisible agarose layer. Slides were washed three times with 1×PBST^5 and then three times with nanopure water. Slides were dried completely in the air before RNA selection, completed by Two-Dimensional Combinatorial Screening (2DCS).
RNA Selection and Screening by 2DCS. The 3×2 RNA ILL was 5′-end ^32P-labeled as previously described^7 and 2DCS selections were completed as previously described 4. All oligonucleotides were folded as described in the “Solution-based Dye Displacement Assay” section. Small molecule microarrays were pre-equilibrated by 3 mL 1× AB2 for 5 min. After removing the pre-equilibration buffer, 5′-end labeled folded 3×2 RNA ILL (~50,000 cpm) was added in 3 mL 1× AB2 containing 1 mM MgCl2 in the presence of competitor oligonucleotides (100 μM each). The oligonucleotide solution was evenly distributed across the microarray surface with a custom-cut piece of Parafilnm. After incubating for 30 min at room temperature, the Parafilm was removed, and the slide was washed gently by submersion in 1× AB2 for 30 s. This washing step was repeated three additional times, and the array was dried on the benchtop for 1 h. […] To harvest and collect the bound RNAs from the ILL, 1 μL of nanopure water was added to each spot. After 30 s, the water drop was absorbed into agarose gel, hydrating it such that it could be excised with a toothpick. The RNAs were eluted from the agarose by simple incubation with water, and then treated with RNase-free DNase I. A unique barcode for each small molecule was installed by reverse transcription (RT). Barcoded RNAs were amplified by PCR, purified, and identified by next-generation sequencing (NGS) using an Ion Proton deep sequencer using PI chips (60-80 million reads) as previously described^2.

Structure (SMILES) | pre-miR-21 levels [1] | enrichment of pre-miR-21 in RNase L immunoprecipitation [2] | competition of FLT3 enrichment by probe 4 [3] | number of binding RNA motifs [4]
CCOC(=O)C1=C(Nc2ccccc2)S/C(=C\c2ccc(OCCOCCOCCOCCNC(C)=O)c(O)c2)C1=O [Compound 6] | had no effect | not |  | 
CCOC(=O)C1=C(Nc2ccccc2)S/C(=C\c2ccc(O)c(OCCOCCOCCOCCNC(=O)NCCN3CCN(c4ccc5[nH]c(-c6c(N)c7c(F)cccc7[nH]c6=O)nc5c4)CC3)c2)C1=O [Compound 7] | increasing pre-miR-21 levels | not | competed off; also recorded: between that observed for 1 and 2 | 
CCCNC(=O)NCCN1CCN(c2ccc3[nH]c(-c4c(N)c5c(F)cccc5[nH]c4=O)nc3c2)CC1 [Compound 8] |  |  | competed off | 
COc1ccc(NC(=O)[C@H](CCCCN)NC(=O)c2cc(NC(=O)[C@H](CCCCN)NC(=O)c3cc(NC(=O)[C@H](CCCCN)NC(=O)c4cc(NC(=O)[C@@H](N)CCCCN)ccc4OC)ccc3OC)ccc2OC)cc1C(N)=O [Delparantag] |  |  |  | 284
CN1c2ccccc2Sc2ccc(CC(=O)O)cc21 [Metiazinic Acid] |  |  |  | 274
NCCCNc1ccc2c3c(nn2CCNCCO)-c2c(O)ccc(O)c2C(=O)c13 [Piroxantrone] |  |  |  | 278

— patent US12702715B2, “Targeted RNA degradation allows precision repurposing of protein-targeted small molecule medicines to RNA” (University of Florida Research Foundation, Incorporated, priority 2020, dated 2026)
